Drawing on BindingDB's records for patent US11034692 (Genentech, 2021), this text covers Ki for one molecule.

This assay has as its target Mitogen-activated protein kinase kinase kinase kinase 1 (Homo sapiens, UniProt Q92918). In words: Binding Assay. The procedure: Lanth: For the binding assay, 4 ul 2×HPK1 and Eu-anti-GST antibody were added to each well of the assay plate using a Multidrop reagent dispenser. The solutions were incubated in a 23 C incubator for 1 h. To each well of the assay plate was added 4 ul 2× Tracer-222 using a Multidrop reagent dispenser. The solutions were again incubated in a 23 C incubator for 1 h. The results of the assay were read using an Envision plate reader with the following parameters: TR_FRET, 340ex/615 and 665em; 100 usec Delay; and 200 usec integration.

Each structure is given as a SMILES string. pKi: −log10 of the molar value.

Chain of Mitogen-activated protein kinase kinase kinase kinase 1 (Q92918 whole entry): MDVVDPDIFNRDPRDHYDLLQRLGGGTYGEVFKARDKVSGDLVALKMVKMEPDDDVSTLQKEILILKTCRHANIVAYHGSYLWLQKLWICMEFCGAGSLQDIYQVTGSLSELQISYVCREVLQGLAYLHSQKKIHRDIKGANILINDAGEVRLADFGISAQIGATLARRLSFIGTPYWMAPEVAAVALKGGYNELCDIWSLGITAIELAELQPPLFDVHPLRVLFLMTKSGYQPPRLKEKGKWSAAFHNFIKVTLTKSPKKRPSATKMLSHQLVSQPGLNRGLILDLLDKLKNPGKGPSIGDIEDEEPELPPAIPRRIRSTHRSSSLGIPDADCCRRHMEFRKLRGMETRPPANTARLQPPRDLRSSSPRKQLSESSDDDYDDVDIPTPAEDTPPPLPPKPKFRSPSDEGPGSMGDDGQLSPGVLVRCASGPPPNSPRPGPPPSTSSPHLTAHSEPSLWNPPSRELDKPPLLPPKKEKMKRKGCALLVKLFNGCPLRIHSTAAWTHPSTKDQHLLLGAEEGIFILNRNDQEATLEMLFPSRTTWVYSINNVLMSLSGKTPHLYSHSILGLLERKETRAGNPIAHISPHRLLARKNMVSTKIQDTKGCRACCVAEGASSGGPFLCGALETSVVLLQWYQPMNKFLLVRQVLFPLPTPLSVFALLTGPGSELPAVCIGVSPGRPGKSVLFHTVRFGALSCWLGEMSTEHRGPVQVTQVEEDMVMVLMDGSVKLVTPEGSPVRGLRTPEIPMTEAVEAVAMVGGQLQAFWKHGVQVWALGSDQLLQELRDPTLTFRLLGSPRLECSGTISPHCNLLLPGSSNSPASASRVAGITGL

For the molecule `Cn1cc(-c2cc3cc(NC(=O)[C@H]4C[C@H]4F)ncc3c(N)n2)cn1` [US11034692, Compound 4], the pKi (usually the negative decadic logarithm of the Ki, by convention in mol/L) was 8.54.
